Source: ChEMBL document CHEMBL1649524, “Resistance selection studies comparing the activity of razupenem (PTZ601) to vancomycin and linezolid against eight methicillin-resistant and two methicillin-susceptible Staphylococcus aureus strains” (2009)
Values after ≈ are worked out from the molar mass of the structure shown.

Tests used:
Format in all cases: functional
Staphylococcus aureus [1] = test: Antimicrobial activity against methicillin-susceptible Staphylococcus aureus 540 measured on day 15 by macrodilution method; details: Staphylococcus aureus, 540, 360 h
Staphylococcus aureus [2] = test: Antimicrobial activity against heterogeneous vancomycin-intermediate Staphylococcus aureus 873 measured on day 45 by macrodilution method
Staphylococcus aureus [3] = test: Antimicrobial activity against methicillin-resistant Staphylococcus aureus 525 measured on day 15 by macrodilution method; details: Staphylococcus aureus, 525, 360 h
Staphylococcus aureus [4] = test: Antimicrobial activity against methicillin-resistant Staphylococcus aureus 547 measured on day 20 by macrodilution method; details: Staphylococcus aureus, 547, 480 h
Staphylococcus aureus [5] = test: Antimicrobial activity against methicillin-susceptible Staphylococcus aureus 540 measured on day 35 by macrodilution method
Staphylococcus aureus [6] = test: Antimicrobial activity against methicillin-resistant Staphylococcus aureus 525 measured on day 35 by macrodilution method
Staphylococcus aureus [7] = test: Antimicrobial activity against heterogeneous vancomycin-intermediate Staphylococcus aureus 873 measured on day 50 by macrodilution method
Staphylococcus aureus [8] = test: Antimicrobial activity against methicillin-susceptible Staphylococcus aureus 543 measured after 10 antibiotic-free subculturing by macrodilution method
Staphylococcus aureus [9] = test: Antimicrobial activity against methicillin-resistant Staphylococcus aureus 547 measured on day 25 by macrodilution method; details: Staphylococcus aureus, 547, 600 h
Staphylococcus aureus [10] = test: Antimicrobial activity against vancomycin-intermediate Staphylococcus aureus 1287 measured on day 20 by macrodilution method; details: Staphylococcus aureus, 1287, 480 h
Staphylococcus aureus [11] = test: Antimicrobial activity against methicillin-susceptible Staphylococcus aureus 543 after 15 passages by macrodilution method
Staphylococcus aureus [12] = test: Antimicrobial activity against heterogeneous vancomycin-intermediate Staphylococcus aureus 168 after 50 passages by macrodilution method
Staphylococcus aureus [13] = test: Antimicrobial activity against methicillin-susceptible Staphylococcus aureus 540 measured on day 20 by macrodilution method; details: Staphylococcus aureus, 540, 480 h
Staphylococcus aureus [14] = test: Antimicrobial activity against methicillin-resistant Staphylococcus aureus 547 measured on day 30 by macrodilution method
Staphylococcus aureus [15] = test: Antimicrobial activity against vancomycin-resistant Staphylococcus aureus 509 measured on day 40 by macrodilution method
Staphylococcus aureus [16] = test: Antimicrobial activity against heterogeneous vancomycin-intermediate Staphylococcus aureus 873 after 50 passages by macrodilution method
Staphylococcus aureus [17] = test: Antimicrobial activity against vancomycin-intermediate Staphylococcus aureus 1287 measured on day 40 by macrodilution method
Staphylococcus aureus [18] = test: Antimicrobial activity against methicillin-resistant Staphylococcus aureus 525 measured on day 25 by macrodilution method; details: Staphylococcus aureus, 525, 600 h
Staphylococcus aureus [19] = test: Antimicrobial activity against methicillin-resistant Staphylococcus aureus 547 measured on day 35 by macrodilution method
Staphylococcus aureus [20] = test: Antimicrobial activity against methicillin-resistant Staphylococcus aureus 525 measured on day 20 by macrodilution method; details: Staphylococcus aureus, 525, 480 h
Staphylococcus aureus [21] = test: Antimicrobial activity against methicillin-resistant Staphylococcus aureus 525 measured on day 40 by macrodilution method
Staphylococcus aureus [22] = test: Antimicrobial activity against methicillin-susceptible Staphylococcus aureus 543 measured on day 10 by macrodilution method; details: Staphylococcus aureus, 543, 240 h
Staphylococcus aureus [23] = test: Antimicrobial activity against vancomycin-resistant Staphylococcus aureus 509 measured after 10 antibiotic-free subculturing by macrodilution method
Staphylococcus aureus [24] = test: Antimicrobial activity against vancomycin-intermediate Staphylococcus aureus 1287 measured on day 25 by macrodilution method; details: Staphylococcus aureus, 1287, 600 h
Staphylococcus aureus [25] = test: Antimicrobial activity against methicillin-resistant Staphylococcus aureus 525 measured on day 50 by macrodilution method
Staphylococcus aureus [26] = test: Antimicrobial activity against heterogeneous vancomycin-intermediate Staphylococcus aureus 168 measured on day 10 by macrodilution method; details: Staphylococcus aureus, 168, 240 h
Staphylococcus aureus [27] = test: Antimicrobial activity against methicillin-resistant Staphylococcus aureus 547 measured on day 45 by macrodilution method
Staphylococcus aureus [28] = test: Antimicrobial activity against vancomycin-intermediate Staphylococcus aureus 1287 measured on day 45 by macrodilution method
Staphylococcus aureus [29] = test: Antimicrobial activity against heterogeneous vancomycin-intermediate Staphylococcus aureus 873 measured on day 35 by macrodilution method
Staphylococcus aureus [30] = test: Antimicrobial activity against vancomycin-intermediate Staphylococcus aureus 1287 measured on day 35 by macrodilution method
Staphylococcus aureus [31] = test: Antimicrobial activity against heterogeneous vancomycin-intermediate Staphylococcus aureus 168 measured on day 40 by macrodilution method
Staphylococcus aureus [32] = test: Antimicrobial activity against vancomycin-intermediate Staphylococcus aureus 1287 after 50 passages by macrodilution method
Staphylococcus aureus [33] = test: Antimicrobial activity against vancomycin-resistant Staphylococcus aureus 509 measured on day 20 by macrodilution method; details: Staphylococcus aureus, 509, 480 h
Staphylococcus aureus [34] = test: Antimicrobial activity against methicillin-susceptible Staphylococcus aureus 540 measured on day 25 by macrodilution method; details: Staphylococcus aureus, 540, 600 h
Staphylococcus aureus [35] = test: Antimicrobial activity against heterogeneous vancomycin-intermediate Staphylococcus aureus 168 measured on day 20 by macrodilution method; details: Staphylococcus aureus, 168, 480 h
Staphylococcus aureus [36] = test: Antimicrobial activity against methicillin-resistant Staphylococcus aureus 547 after 48 passages by macrodilution method
Staphylococcus aureus [37] = test: Antimicrobial activity against heterogeneous vancomycin-intermediate Staphylococcus aureus 168 measured on day 50 by macrodilution method
Staphylococcus aureus [38] = test: Antimicrobial activity against heterogeneous vancomycin-intermediate Staphylococcus aureus 873 measured on day 30 by macrodilution method
Staphylococcus aureus [39] = test: Antimicrobial activity against heterogeneous vancomycin-intermediate Staphylococcus aureus 168 measured on day 35 by macrodilution method
Staphylococcus aureus [40] = test: Antimicrobial activity against methicillin-resistant Staphylococcus aureus 525 after 50 passages by macrodilution method
Staphylococcus aureus [41] = test: Antimicrobial activity against methicillin-susceptible Staphylococcus aureus 540 measured on day 30 by macrodilution method
Staphylococcus aureus [42] = test: Antimicrobial activity against vancomycin-resistant Staphylococcus aureus 510 measured on day 35 by macrodilution method
Staphylococcus aureus [43] = test: Antimicrobial activity against methicillin-resistant Staphylococcus aureus 525 measured on day 45 by macrodilution method
Staphylococcus aureus [44] = test: Antimicrobial activity against methicillin-resistant Staphylococcus aureus 547 measured on day 15 by macrodilution method; details: Staphylococcus aureus, 547, 360 h
Staphylococcus aureus [45] = test: Antimicrobial activity against vancomycin-intermediate Staphylococcus aureus 1287 measured on day 30 by macrodilution method
Staphylococcus aureus [46] = test: Antimicrobial activity against heterogeneous vancomycin-intermediate Staphylococcus aureus 168 measured on day 25 by macrodilution method; details: Staphylococcus aureus, 168, 600 h
Staphylococcus aureus [47] = test: Antimicrobial activity against vancomycin-intermediate Staphylococcus aureus 1287 measured on day 50 by macrodilution method
Staphylococcus aureus [48] = test: Antimicrobial activity against vancomycin-intermediate Staphylococcus aureus 1287 measured on day 10 by macrodilution method; details: Staphylococcus aureus, 1287, 240 h
Staphylococcus aureus [49] = test: Antimicrobial activity against vancomycin-resistant Staphylococcus aureus 510 measured on day 20 by macrodilution method; details: Staphylococcus aureus, 510, 480 h
Staphylococcus aureus [50] = test: Antimicrobial activity against methicillin-susceptible Staphylococcus aureus 543 measured on day 15 by macrodilution method; details: Staphylococcus aureus, 543, 360 h
Staphylococcus aureus [51] = test: Antimicrobial activity against vancomycin-resistant Staphylococcus aureus 509 measured on day 25 by macrodilution method; details: Staphylococcus aureus, 509, 600 h
Staphylococcus aureus [52] = test: Antimicrobial activity against vancomycin-intermediate Staphylococcus aureus 1287 measured after 10 antibiotic-free subculturing by macrodilution method
Staphylococcus aureus [53] = test: Antimicrobial activity against vancomycin-resistant Staphylococcus aureus 510 measured on day 50 by macrodilution method
Staphylococcus aureus [54] = test: Antimicrobial activity against vancomycin-resistant Staphylococcus aureus 510 after 50 passages by macrodilution method
Staphylococcus aureus [55] = test: Antimicrobial activity against vancomycin-resistant Staphylococcus aureus 510 measured on day 25 by macrodilution method; details: Staphylococcus aureus, 510, 600 h
Staphylococcus aureus [56] = test: Antimicrobial activity against vancomycin-resistant Staphylococcus aureus 509 after 28 passages by macrodilution method
Staphylococcus aureus [57] = test: Antimicrobial activity against vancomycin-resistant Staphylococcus aureus 510 measured on day 30 by macrodilution method
Staphylococcus aureus [58] = test: Antimicrobial activity against methicillin-resistant Staphylococcus aureus 547 measured on day 40 by macrodilution method
Staphylococcus aureus [59] = test: Antimicrobial activity against heterogeneous vancomycin-intermediate Staphylococcus aureus 168 measured on day 45 by macrodilution method
Staphylococcus aureus [60] = test: Antimicrobial activity against heterogeneous vancomycin-intermediate Staphylococcus aureus 873 measured on day 40 by macrodilution method
Staphylococcus aureus [61] = test: Antimicrobial activity against vancomycin-intermediate Staphylococcus aureus 1287 measured on day 5 by macrodilution method; details: Staphylococcus aureus, 1287, 120 h
Staphylococcus aureus [62] = test: Antimicrobial activity against heterogeneous vancomycin-intermediate Staphylococcus aureus 168 measured on day 15 by macrodilution method; details: Staphylococcus aureus, 168, 360 h
Staphylococcus aureus [63] = test: Antimicrobial activity against vancomycin-intermediate Staphylococcus aureus 1287 measured on day 15 by macrodilution method; details: Staphylococcus aureus, 1287, 360 h

`CC(=O)NC[C@H]1CN(c2ccc(N3CCOCC3)c(F)c2)C(=O)O1` [LINEZOLID] showed an MIC (Staphylococcus aureus [1]) of 16 µg/mL (≈ 47.4 µM), an MIC (Staphylococcus aureus [2]) of 8 µg/mL (≈ 23.7 µM) and an MIC (Staphylococcus aureus [3]) of 16 µg/mL (≈ 47.4 µM). For the same molecule, the MIC (Staphylococcus aureus [4]) was 8 µg/mL (≈ 23.7 µM), the MIC (Staphylococcus aureus [5]) was 32 µg/mL (≈ 94.9 µM) and the MIC (Staphylococcus aureus [6]) was 16 µg/mL (≈ 47.4 µM). For the same molecule, the MIC (Staphylococcus aureus [7]) was 8 µg/mL (≈ 23.7 µM), the MIC (Staphylococcus aureus [8]) was 32 µg/mL (≈ 94.9 µM) and the MIC (Staphylococcus aureus [9]) was 16 µg/mL (≈ 47.4 µM). For the same molecule, the MIC (Staphylococcus aureus [10]) was 8 µg/mL (≈ 23.7 µM), the MIC (Staphylococcus aureus [11]) was 32 µg/mL (≈ 94.9 µM) and the MIC (Staphylococcus aureus [12]) was 16 µg/mL (≈ 47.4 µM). For the same molecule, the MIC (Staphylococcus aureus [13]) was 16 µg/mL (≈ 47.4 µM), the MIC (Staphylococcus aureus [14]) was 16 µg/mL (≈ 47.4 µM) and the MIC (Staphylococcus aureus [15]) was 8 µg/mL (≈ 23.7 µM). For the same molecule, the MIC (Staphylococcus aureus [16]) was 8 µg/mL (≈ 23.7 µM), the MIC (Staphylococcus aureus [17]) was 16 µg/mL (≈ 47.4 µM) and the MIC (Staphylococcus aureus [18]) was 16 µg/mL (≈ 47.4 µM). The MIC (Staphylococcus aureus [19]) was 16 µg/mL (≈ 47.4 µM), the MIC (Staphylococcus aureus [20]) was 16 µg/mL (≈ 47.4 µM) and the MIC (Staphylococcus aureus [21]) was 16 µg/mL (≈ 47.4 µM). For the same molecule, the MIC (Staphylococcus aureus [22]) was 8 µg/mL (≈ 23.7 µM), the MIC (Staphylococcus aureus [23]) was 32 µg/mL (≈ 94.9 µM) and the MIC (Staphylococcus aureus [24]) was 8 µg/mL (≈ 23.7 µM). The MIC (Staphylococcus aureus [25]) was 16 µg/mL (≈ 47.4 µM), the MIC (Staphylococcus aureus [26]) was 8 µg/mL (≈ 23.7 µM) and the MIC (Staphylococcus aureus [27]) was 32 µg/mL (≈ 94.9 µM). For the same molecule, the MIC (Staphylococcus aureus [28]) was 16 µg/mL (≈ 47.4 µM), the MIC (Staphylococcus aureus [29]) was 8 µg/mL (≈ 23.7 µM) and the MIC (Staphylococcus aureus [30]) was 16 µg/mL (≈ 47.4 µM). The MIC (Staphylococcus aureus [31]) was 8 µg/mL (≈ 23.7 µM), the MIC (Staphylococcus aureus [32]) was 16 µg/mL (≈ 47.4 µM) and the MIC (Staphylococcus aureus [33]) was 8 µg/mL (≈ 23.7 µM). It also gave an MIC (Staphylococcus aureus [34]) of 16 µg/mL (≈ 47.4 µM), an MIC (Staphylococcus aureus [35]) of 8 µg/mL (≈ 23.7 µM) and an MIC (Staphylococcus aureus [36]) of 32 µg/mL (≈ 94.9 µM). The MIC (Staphylococcus aureus [37]) was 16 µg/mL (≈ 47.4 µM), the MIC (Staphylococcus aureus [38]) was 16 µg/mL (≈ 47.4 µM) and the MIC (Staphylococcus aureus [39]) was 8 µg/mL (≈ 23.7 µM). For the same molecule, the MIC (Staphylococcus aureus [40]) was 16 µg/mL (≈ 47.4 µM), the MIC (Staphylococcus aureus [41]) was 16 µg/mL (≈ 47.4 µM) and the MIC (Staphylococcus aureus [42]) was 8 µg/mL (≈ 23.7 µM). The MIC (Staphylococcus aureus [43]) was 16 µg/mL (≈ 47.4 µM), the MIC (Staphylococcus aureus [44]) was 8 µg/mL (≈ 23.7 µM) and the MIC (Staphylococcus aureus [45]) was 16 µg/mL (≈ 47.4 µM). It also gave an MIC (Staphylococcus aureus [46]) of 8 µg/mL (≈ 23.7 µM), an MIC (Staphylococcus aureus [47]) of 16 µg/mL (≈ 47.4 µM) and an MIC (Staphylococcus aureus [48]) of 8 µg/mL (≈ 23.7 µM). For the same molecule, the MIC (Staphylococcus aureus [49]) was 8 µg/mL (≈ 23.7 µM), the MIC (Staphylococcus aureus [50]) was 32 µg/mL (≈ 94.9 µM) and the MIC (Staphylococcus aureus [51]) was 16 µg/mL (≈ 47.4 µM). The MIC (Staphylococcus aureus [52]) was 8 µg/mL (≈ 23.7 µM), the MIC (Staphylococcus aureus [53]) was 16 µg/mL (≈ 47.4 µM) and the MIC (Staphylococcus aureus [54]) was 16 µg/mL (≈ 47.4 µM). The MIC (Staphylococcus aureus [55]) was 8 µg/mL (≈ 23.7 µM), the MIC (Staphylococcus aureus [56]) was 16 µg/mL (≈ 47.4 µM) and the MIC (Staphylococcus aureus [57]) was 8 µg/mL (≈ 23.7 µM). The MIC (Staphylococcus aureus [58]) was 16 µg/mL (≈ 47.4 µM), the MIC (Staphylococcus aureus [59]) was 8 µg/mL (≈ 23.7 µM) and the MIC (Staphylococcus aureus [60]) was 8 µg/mL (≈ 23.7 µM). It also gave an MIC (Staphylococcus aureus [61]) of 8 µg/mL (≈ 23.7 µM), an MIC (Staphylococcus aureus [62]) of 8 µg/mL (≈ 23.7 µM) and an MIC (Staphylococcus aureus [63]) of 8 µg/mL (≈ 23.7 µM).
